Results: PMC2771899, “Augmentation of Reverse Transcription by Integrase through an Interaction with Host Factor, SIP1/Gemin2 Is Critical for HIV-1 Infection” (PLoS ONE, 2009)

Columns and labels:
[1] = tested on: IN-SIP1 interaction (His-IN, rSIP1); assay: Dot-blot inhibition of IN-SIP1 interaction by peptide; format: binding, HIV-1
[2] = tested on: viral entry and RT enzymatic activity; assay: Direct effect on viral entry and RT enzymatic activity; design: species or system HIV-1; details: data not shown
MLV cDNA synthesis = format: cell-based, Moloney murine leukemia virus; details: PMA-stimulated THP-1 cells, 100 µM peptide, MMLV vector pFB-Luc; R/U5 24 h post-infection; compared with DMSO or control peptide
HIV-1 cDNA synthesis = format: cell-based; details: PMA-stimulated THP-1 cells, 100 µM peptide 16 h before and 6 h during infection; R/U5 and R/gag, 24 h post-infection
rSIP1 = assay: Dot-blot binding of peptide to SIP1; details: 40 or 400 nmol peptide on nitrocellulose, rSIP1 (5 µg), anti-SIP1 antibody
[3] = target: T1, IN-SIP1 mediated RT activity (Homo sapiens, UniProt O14893); assay: In vitro RT assay, inhibition of IN-SIP1 mediated RT activity by peptide; format: biochemical, HIV-1
T1 construct: the SIP1 gene was amplified from pTRE-SIP1 (kindly provided by Dr. G. Dreyfuss) by PCR and cloned into BamHI and EcoRI sites of pGEX-6P-2; GST (N, cleaved yes); made in house; host or cells: E. coli BL21 (GST-SIP1), E. coli M15 (His-IN)
T1 sequence (O14893 1-280): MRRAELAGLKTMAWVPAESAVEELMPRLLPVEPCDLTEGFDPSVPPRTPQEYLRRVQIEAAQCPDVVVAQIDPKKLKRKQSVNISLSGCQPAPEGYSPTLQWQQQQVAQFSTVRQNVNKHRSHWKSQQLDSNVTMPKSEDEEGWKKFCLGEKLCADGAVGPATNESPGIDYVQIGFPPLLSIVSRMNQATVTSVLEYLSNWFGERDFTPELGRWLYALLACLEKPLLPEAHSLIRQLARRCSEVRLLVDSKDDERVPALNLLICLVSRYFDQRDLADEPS

[4] = tested on: HIVNL43-luc/VSV-G pseudotypes; format: cell-based, HIV-1

## IN60–80: synthetic peptide corresponding to the residues of 60–80 of HIV-1 IN (IWQLDCTHLEGKVILVAVHVA; Integrase; UniProt P04585 1207-1227, looked up, fragment)
[1]; His-IN (10 µg) on nitrocellulose, 5 µg rSIP1
  Peptide concentration that reduces His-WT binding to SIP1 to non-specific background levels: About 5 µM
[1]; His-IN (10 µg) on nitrocellulose, 5 µg rSIP1, peptide present
  Interference with binding of full-length IN (His-WT) to SIP1: significantly interfered with the binding of the full-length IN (His-WT) to the SIP1 protein
[1]; IN60–80 versus IN231–251
  Inhibitory effect on His-WT binding to SIP1 relative to IN231–251: more than 10 times
[2]
  Direct effect on viral entry and RT enzymatic activity: does not directly suppress viral entry and RT enzymatic activity
MLV cDNA synthesis
  Effect on MLV cDNA synthesis: no significant inhibitory effect
HIV-1 cDNA synthesis
  Viral cDNA synthesis, % of control: less than 25 % of control
rSIP1
  Direct binding of peptide to rSIP1: efficiently bound to rSIP1
[3]; 35 fmol RT, 3.5 fmol His-IN, 50 fmol rSIP1, 42°C, 30 min, 20 µl, real-time PCR
  IC50, inhibition of IN-SIP1 mediated RT activity: ~10 pmoles per reaction
[3]; 35 fmol RT, 3.5 fmol His-IN, 50 fmol rSIP1, cDNA relative to control
  Effect on IN-SIP1 mediated RT activity: significantly reduced the IN-SIP1 mediated RT activity in a dose-dependent manner
[3]; IN60–80 versus IN231–251
  Inhibitory effect on IN-SIP1 mediated RT activity relative to IN231–251: more than 100 times
[3]; summary statement
  Effect on IN-mediated RT stimulatory effect and HIV-1 replication: specifically block IN-mediated RT stimulatory effect and HIV-1 replication
[4]
  HIV-1 infectivity, % of control: 20–25 % of control
